# Key:
# Assay type in all cases: cell-based
# NBT-II cells [1] = assay: EMT spot migration assay, EGF induced EMT; conditions: for IC50: EMT induced by EGF (20 ng/mL), NBT-II cells, read-out: Cell Dispersion IC50 (nM) EGF
# Protocol: (§1) Stably transfected mcherry fluorescence-labeled NET-II cells are maintained in DMEM supplemented with 10% fetal bovine serum (FBS, Thermo Scientific), 1 μg/mL puromycin (Sigma), 100 units/mL penicillin−100 units/mL streptomycin (1×pen-strep, Invitrogen) and 2 mM L-glutamine (Invitrogen).
# (§2) Test compounds were purchased from various vendors (Selleck Chemicals, Sigma Aldrich, SYN|thesis Med Chem, and Tocris Bioscience). For screening studies, test compounds at both 0.25 mM and 1.0 mM concentrations in DMSO are prepared, each occupying a single well in columns 2 to 11 of 96-well V-bottom plates (Greiner). For dose response studies, selected test compounds were prepared in duplicate wells and serial diluted in DMSO, starting a 1.0 mM concentration. Compound stock plates were stored at −20° C. and thawed at room temperature before use.
# (§3) A schematic for the spot migration assay is illustrated in FIG. 2. Cells were grown up to 80% confluency in tissue culture flasks prior to cell plating. Cells were first trypsinized, concentrated and re-suspended to a density of 5×10^6 cell/mL in CO2 independent medium (Invitrogen) supplemented with 10% FBS. The cell suspension was then evenly aliquoted into the wells of 2 columns of a 96-well V-bottom plate. Using a robotic liquid handling station (Bravo, Agilent Technologies), 0.5 μL of cell suspension was transferred from the 2 columns of the cell suspension-loaded plate and deposited into the center of the wells of 2 columns of a 96-well clear bottom, black assay plate (Corning). This process was repeated six times so that all 96 wells of the assay plate were deposited with a cell suspension spot. The plate was then sealed to minimize evaporation of the cell suspension spots and transferred to a 37° C., 5% CO2 incubator to allow for cells to attach to the culture surface. After one hour, the plate was gently washed with medium once to remove unattached cells, refreshed with 100 μL assay medium (DMEM supplemented with 10% FBS, 1× pen-strep and 2 mM L-glutamine), and then further incubated to allow for cell-cell contacts to establish in the cell colonies.
# Four tiled, non-overlapping images were acquired around the center of each well, which were then stitched together during image analysis to generate a montage covering an area of 3.2 mm×3.2 mm. These images (T1) represent the initial state of the cell colonies before EMT induction.
# After the T1 images are acquired, 1 μL of test compounds were transferred from compound stock plates and added to the assay plates. […] The cultures were then further incubated overnight.
# The next day, 50 μL of growth factor containing medium was added each well of the assay plates. For each of the EGF, HGF or IGF-1 induced EMT spot migration assays, the final growth factor concentrations was adjusted in each well to be 20 ng/mL EGF (Sigma), 4 ng/mL HGF (Calbiochem) or 150 ng/mL IGF-1 (R&D Systems), respectively. The cultures were then incubated for another 24 hours, to allow for EMT and sufficient cell motility/dispersion to occur in the cell colonies.
# Finally, the cell colonies were imaged again using the confocal microplate imager as described above. These images (T2) represent the final state of the cell colonies after compound treatment and EMT induction. The acquired T1 and T2 image sets for each assay plate were then subjected to image analysis.
# Acquired image sets were loaded into image analysis routine developed using Metamorph software. Briefly, a complete image of the entire cell colony in a well was first obtained by stitching the four tiled, non-overlapping images together. Image analysis consists of counting the cell number and measuring the area occupied by the cells. The positive nuclei were segmented using a wavelet decomposition scheme to remove the photonic noise and the inhomogeneous background. A watershed procedure was used to refine the result by separating the confluent nuclei.
# OVCAR-2 cells = assay: EMT reversal assay (morphology, Western blot) in OVCAR-2; conditions: OVCAR-2, 2 μM for 3 days
# Protocol: (§4) SKOV3, HEY and OVCAR-2 cells were maintained in RPMI (Invitrogen) supplemented with 10% fetal bovine serum (FBS, Thermo Scientific), 1 μg/mL puromycin (Sigma), 100 units/mL penicillin−100 units/mL streptomycin (1× pen-strep, Invitrogen) and 2 mM L-glutamine (Invitrogen). AZD0530 and BIBF-1120 were purchased from Selleck Chemicals and SYN|thesis Med Chem respectively. DMSO was used as a vehicle to dissolve both compounds. A stock concentration of 10 mM was prepared for both compounds and stored at −20° C. and aliquots were thawed at room temperature before use. Cells were grown up to 80% confluency in tissue culture flasks prior to cell plating. Cells were first trypsinized, concentrated and re-suspended to a density of 1×10^6 cell/mL in RPMI supplemented with 10% FBS. For each cell lines, 1×10^5 cells were plated onto 100 mm cell culture treated dishes (Nunc) for each condition. The cells were then allowed to attach to the culture dish surface and grow overnight in 37° C., 5% CO2 incubator. In drug conditions, the cells were then incubated with each of the compounds at a final concentration of 2 μM for 3 days to allow cell-cell contacts to establish in the dispersed culture. The medium was aspirated from the culture dishes and the cells were washed with PBS Ca^2+, Mg^2+ before they were snap-frozen with liquid nitrogen. Cells were lysed with RIPA buffer (Sigma) supplemented with protease inhibitor cocktail (Calbiochem) and phosphatase inhibitor cocktail (Roche). Protein concentration was measured using BCA (Pierce) protocol provided by the manufacturer. 8% polyacrylamide gels were used for the separation of proteins and transferred to PDVF membranes (Millipore). Membranes were blocked in 5% non-fat milk (Bio-rad) and incubated at 4 degree Celsius overnight with primary antibodies. E-cadherin antibody was purchased from BD laboratories, MMP13 antibody was purchased from Millipore and Tubulin was purchased from Sigma. […] The raw intensity of the protein bands were quantified using GeneTools software (Syngene).
# SKOV3 cells = assay: EMT reversal assay (morphology, Western blot) in SKOV3; conditions: SKOV3, 2 μM for 3 days
# Protocol: as §4
# NBT-II cells [2] = assay: EMT spot migration assay, HGF induced EMT; conditions: EMT induced by HGF (4 ng/mL), read-out: Cell Dispersion IC50 (nM) HGF
# Protocol: as §1, §2, §3
# After 4 hours of incubation, the cell colonies for each well were imaged using a confocal microplate imager (MetaXpress Ultra, Molecular Devices) with 10× Plan Fluor objective, 561 nm laser excitation and 593/40 nm emission filter configuration. Four tiled, non-overlapping images were acquired around the center of each well, which were then stitched together during image analysis to generate a montage covering an area of 3.2 mm×3.2 mm. These images (T1) represent the initial state of the cell colonies before EMT induction.
# After the T1 images are acquired, 1 μL of test compounds were transferred from compound stock plates and added to the assay plates. […]
# HEY cells = assay: EMT reversal assay (morphology, Western blot) in HEY; conditions: 2 μM for 3 days
# Protocol: as §4
# NBT-II cells [3] = assay: EMT spot migration assay, IGF-1 induced EMT; conditions: EMT induced by IGF-1 (150 ng/mL), read-out: Cell Dispersion IC50 (nM) IGF-1
# Protocol: as §1, §2
# as §3, with “After one hour, the plate was gently washed with medium once to remove unattached cells, refreshed with 100 μL assay medium (DMEM supplemented with 10% FBS, 1× pen-strep and 2 mM L-glutamine), and then further incubated to allow for cell-cell contacts to establish in the cell colonies.” left out
SMILES,IC50 (NBT-II cells [1]),IC50 (NBT-II cells [2]),IC50 (NBT-II cells [3]),also measured
COc1cc2ncnc(Nc3cccc(Cl)c3)c2cc1OC [AG 1478],350 nM,,,"Cell Dispersion ratio (NBT-II cells [1]; PosCtrl condition: [AG1478]=6.67 microM and [EGF]=20 ng/mL, NegCtrl 2.50±0.12): 1.48±0.05"
CN1CCN(CCOc2cc(OC3CCOCC3)c3c(Nc4c(Cl)ccc5c4OCO5)ncnc3c2)CC1 [AZD 0530],565 nM,650 nM,,Morphology after treatment (OVCAR-2 cells; vs DMSO): formed tighter cobblestone-like cell colonies; E-cadherin protein levels (Western blot) (OVCAR-2 cells; vs vehicle): increased; MMP13 protein levels (Western blot) (OVCAR-2 cells; vs vehicle): reduced; Morphology after treatment (SKOV3 cells; vs DMSO): restored the epithelioid-like morphology; E-cadherin protein levels (Western blot) (SKOV3 cells; vs vehicle): greater increase; MMP13 protein levels (Western blot) (SKOV3 cells; vs vehicle): greater reduction; Morphology after treatment (HEY cells; vs DMSO): restored the epithelioid-like morphology; E-cadherin protein levels (Western blot) (HEY cells; vs vehicle): greater increase; MMP13 protein levels (Western blot) (HEY cells; vs vehicle): greater reduction
Cn1cnc2c(F)c(Nc3ccc(Br)cc3Cl)c(C(=O)NOCCO)cc21 [AZD 6244],,471 nM,534 nM,
Cc1cc(N2CCOCC2)cc2[nH]c(-c3c(NC[C@@H](O)c4cccc(Cl)c4)cc[nH]c3=O)nc12 [BMS 536924],6600 nM,,,
CS(=O)(=O)N1CCN(Cc2cc3nc(-c4cccc5[nH]ncc45)nc(N4CCOCC4)c3s2)CC1 [GDC-0941],,,490 nM,
Cn1cc(-c2ccc3nnc(C(F)(F)c4ccc5ncccc5c4)n3n2)cn1 [JNJ.38877605],,43 nM,,
S=C(NCc1ccc2c(c1)OCO2)N1CCN(c2ncnc3c2oc2ccccc23)CC1 [MP-470],510 nM,970 nM,580 nM,
Cc1ccc(-c2nn(C(C)(C)C)c3ncnc(N)c23)cc1 [PP 1],1720 nM,,,
COc1cc2ncnc(Nc3ccc(O)c(Br)c3)c2cc1OC [WHI-P 154],590 nM,,,
